Source: paper PMC4794652, “Identification of E-cadherin signature motifs functioning as cleavage sites for Helicobacter pylori HtrA” (Scientific Reports, 2016)
“Also recorded” adds a separate entry of the source. No end group written: not given here.

Legend:
[1] = tested on: HtrA wild-type (H. pylori); experiment: Direct peptide binding to immobilised HtrA by surface plasmon resonance (SPR); conditions: for concentration-dependent SPR binding to HtrA, C-terminal carboxyl vs amide / direct binding to immobilised HtrA (SPR response): SPR-2, 25 °C, 25 μl/min; for concentration-dependent SPR binding to HtrA, C-terminal carboxyl vs amide: HBS-P, in words (Fig. 4D, S3B, S3C); for direct binding to immobilised HtrA (SPR response): HBS-P (10 mM HEPES-buffered saline, 150 mM NaCl, 0.005% Tween), against significance threshold, in words (Fig. 4C)
Procedure: Affinity studies were performed on a Sierra Sensors GmbH SPR-2 instrument. Measurements were performed at 25 °C with a flow rate of 25 μl/min. Carboxymethyl dextran matrix high-density sensor chips (SPR-2 Affinity Sensor HC, batch 10-BC-04-154-A, Sierra Sensors) were used to immobilise 20 μg/ml HtrA wild-type (wt) in 10 mM HEPES (HEPES buffer 1 M solution, pH 7.3, Fisher Scientific) by adding 198 μl amine coupling with an activation solution (200 mM N-ethyl-3-(3-dimethylaminopropyl)-carbodiimide [EDC] and 50 mM N-hydroxysuccinimide [NHS]). The SPR sensor surface was loaded with 100 μl protein and subsequently treated by injecting 192 μl of 1 M ethanolamine at pH 8.5 for inactivation of excess coupling groups. HBS-P (10 mM HEPES-buffered saline, 150 mM NaCl, 0.005% Tween) served as running and sample buffer for peptide measurements. Peptide samples were directly dissolved in HBS-P buffer. The experiments with the non-peptidic compounds were performed utilising HBS-PD running buffer (10 mM HEPES-buffered saline with 3% DMSO, 150 mM NaCl, 0.005% Tween).

H. pylori HtrA [2] = experiment: In vitro HtrA-mediated E-cadherin (rCdh1) cleavage, inhibition by peptides (Western blot); assay type: biochemical
Procedure: (§1) Proteins were separated by SDS PAGE and analysed by Western blot using specific antibodies against HtrA[21], the extracellular domains EC5 (H108, Santa Cruz Biotechnology and ab40772, Abcam), EC1 (SHE78-7, Invitrogen) and EC2 (HecD1, Calbiochem) of E-cadherin, or the intracellular domain (24E10, Cell Signaling). His6-tagged proteins were analysed using an anti-His5-antibody (Qiagen). GAPDH (Cell Signaling) and β-actin (Sigma) were detected as loading controls. Where indicated, signals of protein bands were quantified using the ImageLab software (BioRad). Graphical presentation and statistical evaluations (Student’s t-test) were performed with GraphPad Prism 5 and p-values of ***p ≤ 0.001, **p ≤ 0.01 and *p ≤ 0.05 were considered statistically significant.
Purification of recombinant H. pylori HtrA and in vitro cleavage assays have been described elsewhere. Briefly, 200 ng recombinant HtrA was incubated with 50 ng recombinant hCdh1 (R&D Systems) in 50 mM HEPES pH 7.4 and 100 μM EDTA for 16 h (or for the indicated time periods) at 37 °C. Where indicated, test peptides were added.

H. pylori HtrA [3] = experiment: Competition experiment: interference with P1-mediated HtrA inhibition (rCdh1 cleavage, Western blot); assay type: biochemical; conditions: 100 μM peptides, 50 ng rCdh1, 200 ng rHtrA, 16 h, 37 °C, in words (Fig. S4B)
Procedure: as §1
Purification of recombinant H. pylori HtrA and in vitro cleavage assays have been described elsewhere. […]
Figure S4. […] (A) Synthesized peptides based on the most frequent detected peptide during label-free mass spectrometry-based proteomic analysis. […] The cleavage fragments were analyzed by Western blot and detected using an antibody against the EC5. (D) Quantitative analysis of the relative amount of β-actin in whole cell lysates (WCL) of the H. pylor i-infected cells by blot densitometry from […]
1 Niessen, C. M. & Gumbiner, B. M. Cadherin-mediated cell sorting not determined by binding or […]

[4] = tested on: HtrA in H. pylori infections of several other cell lines; experiment: Inhibition of hCdh1 NTF formation in H. pylori infections of several other cell lines; assay type: cell-based; conditions: different infection doses, data not shown, in words
Description: (§2) The human gastric adenocarcinoma cell line AGS is E-cadherin-negative and was derived from an adenocarcinoma of the stomach of a person (ECACC, 89090402). AGS cells expressing hCdh1 were generated by transfection using a plasmid containing E-cadherin wild-type cDNA[50] which has been kindly provided by Rohan D. Teasdale (University of Queensland, Australia). E-cadherin-positive MKN-28 cells (JCRB, 0253, obtained from the Max-Planck Institute for Infection Biology) were originally described as being isolated from a moderately differentiated tubular adenocarcinoma and have been frequently used to study E-cadherin-dependent processes. The gastric epithelial NCI-N87 cells (ATCC, CRL-5822) were included as an additional E-cadherin-expressing cell line[24] and were derived from metastasis in the liver. All cells have been described previously[24][51] and were grown in RPMI 1640 medium containing 4 mM glutamine (Invitrogen) and 10% FCS (Sigma) in a humidified atmosphere at 37 °C. […] Adherence of H. pylori was quantitated in a cfu (colony-forming unit) assay. […] The number of cfu was determined by growth on agar plates for 72 h. […] The number of transmigrated bacteria was determined as cfu by taking aliquots from the basal chambers. […]

[5] = tested on: H. pylori transmigration across MKN-28 cells; experiment: Transmigration of H. pylori across polarised MKN-28 cell monolayer (transwell filter assay); assay type: cell-based, H. pylori; human (MKN-28 cells); conditions: 100 μM, 200 μM, 500 μM P1; MOI 50; cfu from basal chamber; n = 3, mean ± std dev; in words (Fig. 5C)
Description: as §2

[6] = tested on: HtrA in H. pylori-infected AGS cells; experiment: Inhibition of HtrA in H. pylori-infected AGS cells transfected with hCdh1 (formation of 90 kDa hCdh1 NTF fragment); assay type: cell-based, H. pylori; human (AGS cells); conditions: transfected AGS cells expressing hCdh1, H. pylori infection 16 h, 50 μl supernatant; blot densitometry, three independent experiments; in words (Fig. 5B)
Procedure: Figure 5 Inhibition of HtrA-mediated E-cadherin cleavage. (A) 50 ng rCdh1 was incubated with 200 ng HtrA and indicated concentrations of P1. rCdh1 fragments and HtrA were detected using specific antibodies. (B) Transfected AGS cells expressing hCdh1 were infected with H. pylori (Hp) or left untreated (–) for 16 h. 50 μl aliquots of the supernatants were separated by SDS PAGE and blotted onto membranes. The 90 kDa hCdh1^NTF fragment was detected by Western blots. The relative amount of hCdh1^NTF fragment was quantified by blot densitometry from three independent experiments. […] (C) Polarised MKN-28 cells grown on transwell filters were infected with H. pylori in the presence and absence of peptide P1 at different concentrations (100 μM, 200 μM, 500 μM). Bacteria that had transmigrated across the MKN-28 monolayer on the filter were counted (n = 3, mean ± std dev).
The human gastric adenocarcinoma cell line AGS is E-cadherin-negative and was derived from an adenocarcinoma of the stomach of a person (ECACC, 89090402). […] Adherence of H. pylori was quantitated in a cfu (colony-forming unit) assay. […] The number of cfu was determined by growth on agar plates for 72 h. […] The number of transmigrated bacteria was determined as cfu by taking aliquots from the basal chambers. […]

P1-NH2: P1 with a C-terminal alpha-amide (TGTLLLILSDVNDNAPIPEPR-NH2) [Peptide P1-NH2]
concentration-dependent SPR binding to HtrA, C-terminal carboxyl vs amide [1]: concentration-dependent binding

TGTLLLI [Peptide P1_NT, short peptide P1_NT, contains the hydrophobic amino acid stretch TGTLLLI]
blocking of HtrA-induced E-cadherin cleavage, 7-residue N-terminal peptides (H. pylori HtrA [2]; 100 μM peptide, 50 ng rCdh1, 200 ng rHtrA, 16 h, 37 °C, in words (Fig. S4B)): None of these peptides blocked HtrA-induced E-cadherin cleavage
interference with P1-mediated HtrA inhibition (H. pylori HtrA [3]): None of these peptides blocked HtrA-induced E-cadherin cleavage or interfered with P1-mediated HtrA inhibition

NDNAPIPEPR [Peptide P5]
direct binding to immobilised HtrA (SPR response) [1]: positive binding response above the significance threshold

TGTLLLILSDVNDNAPIPEPR [Peptide P1]
decrease in formation of hCdh1 NTF in other cell lines and infection doses [4]: This effect was also observed in H. pylori infections of several other cell lines and at different infection doses
H. pylori transmigration across polarised MKN-28 monolayer [5]: strong concentration-dependent reduction of H. pylori transmigration; also recorded: inhibition of H. pylori transmigration
inhibition of in vitro HtrA-mediated E-cadherin cleavage (H. pylori HtrA [2]; 100 μM peptide, 200 ng HtrA, 50 ng rCdh1, 50 mM HEPES pH 7.4, 100 μM EDTA, 16 h, 37 °C, Western blot, in words (Fig. 4A,B)): effectively inhibited in vitro HtrA-mediated E-cadherin cleavage; also recorded: efficiently inhibited HtrA-mediated E-cadherin cleavage
inhibition of HtrA-mediated rCdh1 cleavage, concentration dependence (H. pylori HtrA [2]; indicated concentrations of P1, 50 ng rCdh1, 200 ng HtrA, Western blot, in words (Fig. 5A)): strongly inhibited HtrA-mediated rCdh1 cleavage in a concentration-dependent manner
inhibition of HtrA-mediated E-cadherin cleavage in vitro (summary) (H. pylori HtrA [2]; summary statement without concentration, in words): efficiently blocked E-cadherin cleavage in vitro
formation of hCdh1 NTF fragment (bioactivity in H. pylori-infected AGS cells) [6]: significant dose-dependent decrease in the formation of the hCdh1^NTF; also recorded: weaker, but still significant at higher concentrations
direct binding to immobilised HtrA (SPR response) [1]: strong binding
concentration-dependent SPR binding to HtrA, C-terminal carboxyl vs amide ([1]; listed as P1-OH): concentration-dependent binding; also recorded: stronger SPR signals; also recorded: greater SPR response than its amide counterpart
binding specificity for HtrA ([1]; in words): binds with high specificity
